# Patent US10760130B2, “Predictive biomarker for hypoxia-activated prodrug therapy” (MOLECULAR TEMPLATES, INC., priority 2014, dated 2020)
# Tests used:
# [1] = system: locally advanced or metastatic pancreatic cancer; conditions: cited from earlier work
# [2] = system: panel of 11 cancer cell-line derived models; conditions: tumor xenografts, variety of tumor types; cited from earlier work
# [3] = system: locally advanced or metastatic pancreatic cancer; assay: TH-CR-404 Phase II clinical trial in pancreatic cancer (NCT01144455); type: in vivo, human
# Experimental: In the TH-CR-404 Phase II clinical trial in pancreatic cancer (NCT01144455), pancreatic cancer patients with locally advanced or metastatic disease were randomized in three study arms to receive Gemcitabine (Gem) therapy or the combination of Gemcitabine with one of 2 dose levels of TH-302. TH-302 was administered either at 240 or 340 mg/m^2 by intravenous infusion. A total of 214 patients were enrolled (Gemcitabine arm, n=69; Gemcitabine+TH-302 240 mg/m^2, n=71; Gemcitabine+TH-302 340 mg/m^2, n=74).
# To search for potentially predictive serum biomarkers of the clinical benefit derived from TH-302 hypoxia-activated therapy, an initial search of candidate biomarkers was conducted from the trial pre-treatment serum samples using a multiplexed bead-based immunoassay (AssayGate, Inc., Ijamsville, Md.). When measuring serum samples for ENO1 and ENO2 protein levels by means of this bead-based, suspension immunoassay format for ENO1, the limit of detection of the assay was 1.8 ng/ml. For ENO2, the assay sensitivity was 1.2 ng/ml.
# Following the identification of ENO2 as a potentially predictive biomarker for the clinical benefit derived from TH-302, the levels of ENO1 were tested in the same patient serum samples (Harris A L, 2002, Nat Rev Cancer 2: 38-47; Semenza G L, 2003, Nat Rev Cancer 3: 721-732). High levels of ENO1 were associated with improved PFS and OS in Gemcitabine+TH-302 340 mg/m^2 patient samples in this trial (FIG. 2). These associations were shown using the ENO1 cut-off value of the assay sensitivity limit (1.8 ng/ml) (FIGS. 2A and 2B).
compound,measurement,setting,value
"Cn1c(COP(=O)(NCCBr)NCCBr)cnc1[N+](=O)[O-] [TH-302, (2-bromoethyl)({[(2-bromoethyl)amino][(2-nitro-3-methylimidazol-4-yl)methoxy]phosphoryl})amine]",progression free survival (PFS) hazard ratio (HR),"[1]; Gemcitabine+TH-302 340 mg/m^2 (high-dose group) vs Gemcitabine alone, intravenous infusion, p=0.008",0.58
same,primary endpoint: progression free survival (PFS),[1]; Gemcitabine+TH-302 groups (240 or 340 mg/m^2) compared to Gemcitabine alone,improved progression free survival
same,monotherapy efficacy (tumor growth delay),[2],modest
same,difference between treatment groups of median PFS time among patients with high ENO2,"[3]; Gem vs Gem+TH-302 340 mg/m^2, ENO2 median cut-off 20.3913 ng/ml, FIG. 1A",more pronounced
same,difference between treatment groups of median OS time among patients with high ENO2,"[3]; Gem vs Gem+TH-302 340 mg/m^2, ENO2 median cut-off 20.3913 ng/ml, FIG. 1B",more pronounced
same,OS in patients with high serum ENO1 levels,"[3]; Gemcitabine+TH-302 340 mg/m^2, ENO1 cut-off 1.8 ng/ml (more pronounced at 2.3 and 3.2 ng/ml), FIG. 2B-2D",improved
same,PFS in patients with high serum ENO1 levels,"[3]; Gemcitabine+TH-302 340 mg/m^2, ENO1 cut-off 1.8 ng/ml, FIG. 2A",improved
